{
  "source": "patent US5298508A",
  "about": "“Irreversible inhibitors of adenosine receptors” (priority 1992, dated 1994)",
  "key": {"A1 adenosine receptors": {"target": "T1, A1 adenosine receptors (Rattus norvegicus, UniProt P25099)", "T1 construct": "A1 adenosine receptors in rat cerebral cortex membranes; from tissue; host or cells: rat cerebral cortex membranes", "T1 sequence (P25099 1-326)": "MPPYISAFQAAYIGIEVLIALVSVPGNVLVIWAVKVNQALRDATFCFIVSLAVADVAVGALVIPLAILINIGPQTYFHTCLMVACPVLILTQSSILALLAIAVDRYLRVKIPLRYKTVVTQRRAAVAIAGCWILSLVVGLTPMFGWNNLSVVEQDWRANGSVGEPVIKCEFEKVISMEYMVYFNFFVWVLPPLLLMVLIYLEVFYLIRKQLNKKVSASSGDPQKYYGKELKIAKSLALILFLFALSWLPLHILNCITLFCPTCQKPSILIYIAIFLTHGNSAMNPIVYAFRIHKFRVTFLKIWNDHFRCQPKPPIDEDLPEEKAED", "experiment": "inhibition of binding of [3H]N6-phenylisopropyladenosine ([3H]PIA) to A1 adenosine receptors in rat cerebral cortex membranes", "description": "Ukena et al., FEBS Letters 209;122, 1986.\nFor the biochemical assays, stock solutions of xanthines in the millimolar concentration range in dimethylsulfoxide were prepared and stored frozen. The solutions were warmed to 50° C. prior to dilution in aqueous medium. […] Acad. Sci. USA, 83:4089, 1986. Inhibition of binding by a range of concentrations of a xanthine or adenosine derivative was assessed in triplicate in at least three separate experiments."}, "central A1 receptors [1]": {"target": "T2, central A1 receptors (Rattus norvegicus, UniProt P25099)", "T2 construct": "A1 -adenosine receptors in rat brain membranes; from tissue; host or cells: rat brain membranes", "T2 sequence (P25099 1-326)": "T1 sequence (P25099 1-326)", "format": "binding", "details": "for irreversible inhibition of central A1-adenosine receptors: result in words"}, "central A1 receptors [2]": {"target": "T3, central A1 receptors (Bos taurus, UniProt P28190)", "T3 construct": "A1 -adenosine receptors in membranes form calf brain; from tissue; host or cells: calf brain membranes", "T3 sequence (P28190 1-326)": "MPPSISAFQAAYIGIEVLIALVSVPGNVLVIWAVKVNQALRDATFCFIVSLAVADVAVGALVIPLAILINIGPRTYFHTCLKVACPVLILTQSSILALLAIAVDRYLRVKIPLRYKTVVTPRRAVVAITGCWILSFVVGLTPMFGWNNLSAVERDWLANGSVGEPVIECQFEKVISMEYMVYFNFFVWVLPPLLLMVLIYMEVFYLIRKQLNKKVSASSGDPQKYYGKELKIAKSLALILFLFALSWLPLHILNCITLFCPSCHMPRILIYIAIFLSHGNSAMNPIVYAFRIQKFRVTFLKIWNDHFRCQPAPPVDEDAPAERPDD", "experiment": "inhibition of radioligand binding at central A1 receptors, calf brain membranes", "description": "^b against [^125 I]APNEA (i.e. N^6\n^b against [^125 I]APNEA;\nThe compounds, at concentrations relative to the Ki -values obtained, were screened for the ability to inhibit competitive binding of the radioligands [^3 H]PIA to rat brain membranes and [^3 H]XAC to bovine brain membranes, a shown in Table 1."}, "[3]": {"details": "read-out: Ki at central A1 receptors, rat"}, "[4]": {"details": "Table I, rat, against [3H]PIA, read-out: Ki at central A1 receptors, rat"}},
  "note": "Where two headings read alike, the source gives them in different places.",
  "data": [
    {"smiles": "O=C(Cc1ccc(NC(=O)Cc2ccc(Nc3ncnc4c3ncn4[C@@H]3O[C@H](CO)[C@@H](O)[C@H]3O)cc2)cc1)NCCNC(=S)Nc1ccc(S(=O)(=O)O)cc1", "note": "[Compound 35]", "values": [
      {"measurement": "Ki", "setting": "A1 adenosine receptors; [3]", "value": 100, "unit": "nM"}
    ]},
    {"smiles": "CCCn1c(=O)c2nc(-c3ccc(OCC(=O)NCCN=C(S)Nc4ccc(S(=O)(=O)O)cc4)cc3)[nH]c2n(CCC)c1=O", "note": "[Compound 12]", "values": [
      {"measurement": "Ki", "setting": "A1 adenosine receptors; [3]", "value": 430, "unit": "nM"}
    ]},
    {"smiles": "CCCn1c(=O)c2[nH]c(-c3ccc(OCC(=O)NCCNS(=O)(=O)c4ccc(C)cc4)cc3)nc2n(CCC)c1=O", "note": "[Compound 14]", "values": [
      {"measurement": "Ki", "setting": "A1 adenosine receptors; [4]", "value": "72 ± 7.2", "unit": "nM"}
    ]},
    {"smiles": "CCCn1c(=O)c2[nH]c(-c3ccc(OCC(=O)NCCNC(=O)CNC(=S)Nc4ccc(N=C=S)cc4)cc3)nc2n(CCC)c1=O", "note": "[Compound 16c]", "values": [
      {"measurement": "inhibition at 0.5 µM", "setting": "central A1 receptors [1]; read-out: % inhib (conc)", "value": 50, "unit": "%"},
      {"measurement": "irreversible inhibition of central A1-adenosine receptors", "setting": "central A1 receptors [1]", "value": "behave pharmacologically as irreversible inhibitors of central A1 -adenosine receptors"},
      {"measurement": "Ki", "setting": "A1 adenosine receptors; [4]", "value": "6.85 ± 1.14", "unit": "nM"}
    ]},
    {"smiles": "O=C(Cc1ccc(NC(=O)Cc2ccc(Nc3ncnc4c3ncn4[C@@H]3O[C@H](CO)[C@@H](O)[C@H]3O)cc2)cc1)NCCNC(=S)Nc1c(F)c(F)c(F)c(F)c1F", "note": "[Compound 32]", "values": [
      {"measurement": "Ki", "setting": "A1 adenosine receptors; [3]", "value": "1.64 ± 0.47", "unit": "nM"}
    ]},
    {"smiles": "CCCn1c(=O)c2[nH]c(-c3ccc(OCC(=O)NCCNC(=O)Cc4ccc(N)cc4)cc3)nc2n(CCC)c1=O", "note": "[Compound 15d]", "values": [
      {"measurement": "Ki", "setting": "A1 adenosine receptors; [4]", "value": 40, "unit": "nM"}
    ]},
    {"smiles": "CCCn1c(=O)c2nc(-c3ccc(OCC(=O)NCCN=C(S)Nc4ccc(F)cc4)cc3)[nH]c2n(CCC)c1=O", "note": "[Compound 8]", "values": [
      {"measurement": "Ki", "setting": "A1 adenosine receptors; [3]", "value": 12.8, "unit": "nM"}
    ]},
    {"smiles": "CCCn1c(=O)c2[nH]c(-c3ccc(OCC(=O)NCCNC(=O)c4ccc(CBr)cc4)cc3)nc2n(CCC)c1=O", "note": "[Compound 19]", "values": [
      {"measurement": "Ki", "setting": "central A1 receptors [2]; read-out: Ki at central A1 receptors, calf", "value": 6.9, "unit": "nM"},
      {"measurement": "Ki", "setting": "A1 adenosine receptors; [4]", "value": "11.5 ± 1.5", "unit": "nM"}
    ]},
    {"smiles": "CCCn1c(=O)c2[nH]c(-c3ccc(OCC(=O)NCCN)cc3)nc2n(CCC)c1=O", "note": "[Compound 3, reference compound]", "values": [
      {"measurement": "Ki", "setting": "central A1 receptors [2]; Table I, calf, against [125I]APNEA, read-out: Ki at central A1 receptors, calf", "value": 0.2, "unit": "nM"},
      {"measurement": "Ki", "setting": "A1 adenosine receptors; [4]", "value": "1.1 ± 0.05", "unit": "nM"}
    ]},
    {"smiles": "CCCn1c(=O)c2[nH]c(-c3ccc(OCC(=O)NCCNC(=O)Cc4ccc(NC(=S)Nc5ccc(N=C=S)cc5)cc4)cc3)nc2n(CCC)c1=O", "note": "[Compound 15e]", "values": [
      {"measurement": "inhibition at 0.1 µM", "setting": "central A1 receptors [1]; read-out: % inhib (conc)", "value": 10, "unit": "%"},
      {"measurement": "Ki", "setting": "A1 adenosine receptors", "value": 30, "unit": "nM"}
    ]},
    {"smiles": "O=C(Cc1ccc(NC(=O)Cc2ccc(Nc3ncnc4c3ncn4[C@@H]3O[C@H](CO)[C@@H](O)[C@H]3O)cc2)cc1)NCCNC(=S)Nc1ccc(N=C=S)cc1", "note": "[Compound 27]", "values": [
      {"measurement": "inhibition at 0.05 µM", "setting": "central A1 receptors [1]; read-out: % inhib (conc)", "value": "> 80", "unit": "%"},
      {"measurement": "irreversible inhibition of central A1-adenosine receptors", "setting": "central A1 receptors [1]", "value": "behave pharmacologically as irreversible inhibitors of central A1 -adenosine receptors"},
      {"measurement": "Ki", "setting": "central A1 receptors [2]", "value": 0.1, "unit": "nM"},
      {"measurement": "Ki", "setting": "A1 adenosine receptors", "value": "0.47 ± 0.13", "unit": "nM"}
    ]},
    {"smiles": "CCCn1c(=O)c2[nH]c(-c3ccc(OCC(=O)NCCNC(=S)Nc4c(F)c(F)c(F)c(F)c4F)cc3)nc2n(CCC)c1=O", "note": "[Compound 9]", "values": [
      {"measurement": "Ki", "setting": "A1 adenosine receptors; [4]", "value": "9.07 ± 0.9", "unit": "nM"}
    ]},
    {"smiles": "O=C(Cc1ccc(NC(=O)Cc2ccc(Nc3ncnc4c3ncn4[C@@H]3O[C@H](CO)[C@@H](O)[C@H]3O)cc2)cc1)NCCNC(=S)Nc1ccc([N+](=O)[O-])cc1", "note": "[Compound 34]", "values": [
      {"measurement": "Ki", "setting": "A1 adenosine receptors; [3]", "value": 1, "unit": "nM"}
    ]},
    {"smiles": "CCCn1c(=O)c2[nH]c(-c3ccc(OCC(=O)NCCNC(=S)Nc4ccc(Br)cc4)cc3)nc2n(CCC)c1=O", "note": "[Compound 10]", "values": [
      {"measurement": "Ki", "setting": "A1 adenosine receptors; [4]", "value": "7.26 ± 0.9", "unit": "nM"}
    ]},
    {"smiles": "O=C(Cc1ccc(NC(=O)Cc2ccc(Nc3ncnc4c3ncn4[C@@H]3O[C@H](CO)[C@@H](O)[C@H]3O)cc2)cc1)NCCN=C=S", "note": "[Compound 26b]", "values": [
      {"measurement": "Ki", "setting": "central A1 receptors [2]", "value": 2.5, "unit": "nM"},
      {"measurement": "Ki", "setting": "A1 adenosine receptors", "value": 4, "unit": "nM"}
    ]},
    {"smiles": "O=C(Cc1ccc(NC(=O)Cc2ccc(Nc3ncnc4c3ncn4[C@@H]3O[C@H](CO)[C@@H](O)[C@H]3O)cc2)cc1)NCCNC(=S)Nc1ccc(F)cc1", "note": "[Compound 31a]", "values": [
      {"measurement": "Ki", "setting": "A1 adenosine receptors; [3]", "value": 5, "unit": "nM"}
    ]},
    {"smiles": "CCCn1c(=O)c2nc(-c3ccc(OCC(=O)NCCNC(=O)CCCN4C(=O)C=CC4=O)cc3)[nH]c2n(CCC)c1=O", "note": "[Compound 23]", "values": [
      {"measurement": "Ki", "setting": "A1 adenosine receptors; [3]", "value": 63, "unit": "nM"}
    ]},
    {"smiles": "CCCn1c(=O)c2[nH]c(-c3ccc(OCC(=O)NCCNC(=O)CCSSc4ccccn4)cc3)nc2n(CCC)c1=O", "note": "[Compound 22]", "values": [
      {"measurement": "Ki", "setting": "A1 adenosine receptors; [4]", "value": "23.8 ± 3.51", "unit": "nM"}
    ]},
    {"smiles": "CCCn1c(=O)c2nc(-c3ccc(OCC(=O)NCCN=C(S)Nc4ccc(OC)cc4)cc3)[nH]c2n(CCC)c1=O", "note": "[Compound 7]", "values": [
      {"measurement": "Ki", "setting": "A1 adenosine receptors; [4]", "value": 20, "unit": "nM"}
    ]}
  ]
}
